We go through 7 compounds from ChEMBL document CHEMBL1201862, “PubChem BioAssay data set” (2004).

The source made the active and inactive calls.

Assay [1] is described as follows: M. tuberculosis growth inhibition, HTS (AID 449762). In kind it is functional.
For assay [2], the target named is Sphingosine 1-phosphate receptor 2 (Homo sapiens, UniProt O95136). In words: Dose Response Cell Based Assay for Agonists of the S1P2 Receptor. [Related pubchem assays: 729, 736, 843 ]. In kind it is functional.
Sequence of Sphingosine 1-phosphate receptor 2 (O95136 whole entry): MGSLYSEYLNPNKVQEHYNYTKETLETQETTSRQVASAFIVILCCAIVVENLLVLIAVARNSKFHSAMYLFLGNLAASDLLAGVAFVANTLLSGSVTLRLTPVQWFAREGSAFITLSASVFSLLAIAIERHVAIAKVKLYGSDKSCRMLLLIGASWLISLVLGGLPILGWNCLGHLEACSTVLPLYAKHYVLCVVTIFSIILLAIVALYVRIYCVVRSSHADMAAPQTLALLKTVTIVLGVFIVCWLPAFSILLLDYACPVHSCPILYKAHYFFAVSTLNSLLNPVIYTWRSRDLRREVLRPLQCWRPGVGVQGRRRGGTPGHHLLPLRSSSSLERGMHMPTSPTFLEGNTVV
Assay [3] has as its target Lysine-specific demethylase 4C (Homo sapiens, UniProt Q9H3R0). In words: inhibition of JMJD2C H3K9me3 demethylation – biochemical, DELFIA europium, cherry-picked samples, dose response (AID 488835). Type of assay: functional.
In assay [4] the target is Transthyretin (Homo sapiens, UniProt P02766). In words: Luminescence-based cell-based high throughput dose response assay to identify activators of Transthyretin (TTR) transcription. Type of assay: functional.
Assay [5] is described as follows: viability inhibitors of stage V gametocytes – luminescence, dose response (AID 1117278).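 Note: gametocytes exposed to compound for 24 hours.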 Type of assay: functional, cell-based.
Assay [6] can be described thus: viability loss in human Jurkat cells – cell-based, luminescence, cytotoxicity control for P. falciparum gametocyte viability project, dose response (AID 1117277).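 Note: potency reflects loss of cellular ATP meaning fewer viable cells.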 Type of assay: functional.
The nature of assay [7]: viability loss in Vero cells – cytotoxicity control for Vif-APOBEC3G degradation inhibitor project, dose response (AID 1117358). In kind it is functional. As to conditions: Vero.
For assay [8], the system named is Streptococcus sp. 'group A'. In words: Streptococcus pyogenes SK(-)GAS viability under kanamycin – luminescence, BacTiterGlo, confirmation, counter-screen for streptokinase expression inhibitor project, dose response (AID 1900). In kind it is functional, organism-based.
In assay [9] the target is T1, Streptokinase A (Streptococcus pyogenes serotype M1, UniProt P10520).
T1 sequence (P10520 whole entry): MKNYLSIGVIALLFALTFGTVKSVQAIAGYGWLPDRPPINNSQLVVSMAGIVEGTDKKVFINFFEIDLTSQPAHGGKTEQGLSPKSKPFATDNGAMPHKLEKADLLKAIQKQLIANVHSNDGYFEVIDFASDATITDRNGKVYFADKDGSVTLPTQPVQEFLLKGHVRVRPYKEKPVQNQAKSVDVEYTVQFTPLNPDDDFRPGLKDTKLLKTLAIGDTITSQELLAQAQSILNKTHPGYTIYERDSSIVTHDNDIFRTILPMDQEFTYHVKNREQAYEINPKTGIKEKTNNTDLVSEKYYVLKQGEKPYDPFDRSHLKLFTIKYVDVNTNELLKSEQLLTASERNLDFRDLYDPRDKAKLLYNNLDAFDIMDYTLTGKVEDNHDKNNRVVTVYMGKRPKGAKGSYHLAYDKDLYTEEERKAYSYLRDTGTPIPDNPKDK
In words: viability-normalized secreted streptokinase activity reduction – plasminogen activation absorbance, OD405, dose response (AID 1914).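 Note: secreted streptokinase activity via plasminogen activation per viability signal from cell pellet.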 Type of assay: functional, Streptococcus pyogenes M1 GAS.

Assay [10] deals with Streptococcus. The experiment in a line: GAS UMAA2166 growth inhibition – luminescence, BacTiterGlo, counter-screen for streptokinase expression inhibitor project, dose response (AID 1915).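 Note: potency for reduction of bacterial viability or growth.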 Type of assay: functional, organism-based.
Assay [11] can be described thus: Late stage results for the probe development effort to identify inhibitors of Plasmodium falciparum gametocytes: Luminescence-based cell-based high throughput dose response assay to identify inhibitors of viability of late stage Plasmodium falciparum gametocytes. Type of assay: functional.
Assay [12] in a line: CellTiter-Glo luminescence survival assay, SW480 colon tumor line, concentration-response curve, half-maximal inhibitory concentration (AID 1117338). In kind it is functional.
Assay [13] can be described thus: RKO cell viability reduction, dose response, CellTiter-Glo luminescence (AID 1117322). In kind it is functional.
A short description of assay [14]: cytotoxicity toward HCT116 cells – cell-based, CellTiter-Glo luminescence, IC50, dose response (AID 1117332). As to conditions: HCT-116. In kind it is functional.
A short description of assay [15]: SNU-C1 cell viability reduction, dose response, CellTiter-Glo luminescence (AID 1117323). Type of assay: functional, cell-based.
Assay [16] is described as follows: cytotoxicity toward Colo320 cells – cell-based, CellTiter-Glo luminescence, IC50, dose response (AID 1117334). As to conditions: COLO 320. In kind it is functional.
Assay [17] can be described thus: cytotoxicity toward HT-29 cells – cell-based, CellTiter-Glo luminescence, IC50, dose response (AID 1117330). In kind it is functional.
Assay [18] is described as follows: Reduced DLD-1 viability, concentration-response, CellTiter-Glo luminescence (AID 1117352). Type of assay: functional.
A short description of assay [19]: HCT116 cell viability decrease, GSK3B pretreatment – CellTiter-Glo, IC50, dose response (AID 1117339). In kind it is functional. The note with it: HCT-116.

Sequence of Lysine-specific demethylase 4C (Q9H3R0 whole entry): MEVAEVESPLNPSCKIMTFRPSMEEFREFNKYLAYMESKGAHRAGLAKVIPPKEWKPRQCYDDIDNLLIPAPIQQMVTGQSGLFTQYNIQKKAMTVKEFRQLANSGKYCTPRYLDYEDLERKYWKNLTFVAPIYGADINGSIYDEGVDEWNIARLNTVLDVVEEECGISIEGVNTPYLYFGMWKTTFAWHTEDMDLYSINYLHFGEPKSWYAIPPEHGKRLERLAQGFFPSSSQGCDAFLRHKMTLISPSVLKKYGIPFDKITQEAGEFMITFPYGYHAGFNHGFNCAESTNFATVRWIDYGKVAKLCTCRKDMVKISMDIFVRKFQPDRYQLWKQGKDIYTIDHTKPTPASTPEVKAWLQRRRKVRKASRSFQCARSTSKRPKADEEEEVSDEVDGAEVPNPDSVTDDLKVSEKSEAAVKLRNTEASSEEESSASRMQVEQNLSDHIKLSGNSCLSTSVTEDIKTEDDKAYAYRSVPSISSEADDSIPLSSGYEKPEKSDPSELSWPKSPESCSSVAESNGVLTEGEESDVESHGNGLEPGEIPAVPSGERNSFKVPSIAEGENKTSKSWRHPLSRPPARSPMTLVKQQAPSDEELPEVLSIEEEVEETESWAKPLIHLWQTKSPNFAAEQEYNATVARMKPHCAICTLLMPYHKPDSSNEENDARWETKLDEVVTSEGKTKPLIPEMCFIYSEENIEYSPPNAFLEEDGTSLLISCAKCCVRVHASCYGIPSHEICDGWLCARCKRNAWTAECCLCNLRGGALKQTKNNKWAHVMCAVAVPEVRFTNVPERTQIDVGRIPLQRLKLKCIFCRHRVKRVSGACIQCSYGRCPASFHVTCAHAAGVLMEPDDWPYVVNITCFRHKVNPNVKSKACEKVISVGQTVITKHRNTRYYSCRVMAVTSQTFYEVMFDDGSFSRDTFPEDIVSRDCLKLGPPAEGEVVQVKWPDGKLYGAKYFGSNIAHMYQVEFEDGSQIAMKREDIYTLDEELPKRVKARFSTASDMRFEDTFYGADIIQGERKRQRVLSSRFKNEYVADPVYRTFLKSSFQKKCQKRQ

In the case of `CC(=O)N1C(Nc2ccc(Cl)cc2)CCN1c1ccccc1` (centres undefined), the 50% inhibitory concentration (IC50) in assay [1] was > 100 µM (active).

As to `NC(=O)c1ccc(NC(=O)C2CCCO2)cc1` (centres undefined), the EC50 in assay [2] was > 50 µM (not active).

Regarding `Cc1ccc(C2CC(c3ccccc3)=NN2C(S)=Nc2ccccc2)o1` (centres undefined), the AC50 in assay [3] was 20.5 µM (active). The EC50 in [4] is > 167 µM (inactive).

For the compound `CC(C)OC(=O)c1c(NC(=O)c2ccco2)sc2c1CCCC2`, the results for the IC50 in [5] and in [6] were > 109 µM (inactive) and > 83.2 µM (inactive), respectively.

As for `O=C(Nc1cccc(Cl)c1)C1=Cc2cc(Cl)ccc2OC1`, in assay [7], the CC50 was > 40 µM (active).

Turning to `O=C(NC1=NCCS1)c1cc(-c2ccccc2)nn1-c1ccccc1`, the values for the EC50 in assay [8], in assay [9] and in assay [10] were > 150 µM (not active), 34.2 µM (active) and > 150 µM (not active), respectively. Moreover, the IC50 in assay [11] is > 37.2 µM (inactive).

In the case of `C=CCCCCCCCCC(=O)OC`, the IC50 in assay [12], in assay [13], in assay [14], in assay [15], in [16] and in [17] was > 20 µM (inactive) each time. The IC50 in assay [18] and in assay [19] was > 20 µM (inactive) throughout.
